This experiment concerns the target T1, human recombinant PDE9 protein (Homo sapiens, UniProt O76083).
T1 construct: His-tag (inferred from the Ni column purification; a myc His-tag vector is named only for the HEK293 expression check); made in house; host or cells: silkworm (pYNG vector, Katakura Industries)
Nature of the experiment: PDE9 inhibitory activity test (measurement of PDE9 inhibitory action, [3H]-cGMP). The experiment is classed as biochemical. The following applies: PDE9 IC50, human recombinant PDE9, 30° C., 10 min. The text has this: 1) Preparation of a Human Recombinant PDE9 Protein
An hsPDE9A 1cDNA fragment was amplified by being based on a base sequence (Accession No.: AF048837) of the hsPDE9A1 registered on GenBank data base, and by using the following sequences (Hokkaido System Science Co., Ltd.) as a primer and Human hippocampus cDNA library (Clontech Laboratories, Inc.) as a template DNA, and using Pfu50 DNA polymerase (Invitrogen Corp.), and by a polymerase chain reaction (PCR) of the following condition.
The condition of PCR: [96° C., 5 min]×1 cycle, [(96° C., 10 sec), (57° C., 5 sec), (72° C., 2 min)]×30 cycles
The obtained hsPDE9A 1 cDNA fragment was incorporated in a TOPO-TA cloning vector (Invitrogen Corp.), and the base sequence was checked; and thereafter, the resultant was transfected in a pcDNA 3.1/myc His-tag vector (Invitrogen Corp.) to thereby make a human PDE9 expression vector for mammal cells. The human PDE9 expression vector for mammal cells was transfected with transient expression to an HEK293 cell by using a LIPOFETAMINE 2000 Reagent (Gibco). It was confirmed by Western blot method that the PDE9A expressed in the HEK293 cell, and then, the human PDE9A 1cDNA fragment was transfected in a pYNG vector (Katakura Industries Co., Ltd.) to thereby make an expression vector for insect cells. A supernatant of homogenized silk worm in which a large amount of PDE9 was expressed was purified by an equilibrated Ni column using a buffer A (20 mmol/L Tris-HCl, pH: 8.0, 1 mmol/L DTT, 10 mmol/L imidazole). After 1 hour of mixing of the supernatant and the Ni column, cleaning was carried out using a buffer B (20 mmol/L Tris-HCl, pH: 8.0, 1 mmol/L […]), and elution was carried out using a buffer C (20 mmol/L Tris-HCl, pH: 8.0, 1 mmol/L DTT, 100 mmol/L imidazole). An elution fraction was preparatively collected to thereby obtain a PDE9 enzyme solution.
2) Measurement of PDE9 Inhibitory Action
To 100 μL of a buffer D (40 mmol/L Tris-HCl, pH: 7.4, 10 mmol/L MgCl2, 1 mM DTT, 2 μM cGMP) solution containing [^3H]-cGMP ([…]/mL), 10 μL of a compound solution for evaluation (a solution in which a compound was dissolved in DMSO and diluted so that the DMSO concentration became 5%) and 90 μL of a solution prepared by diluting the PDE9 enzyme solution prepared in the above with a buffer E (40 mmol/L Tris-HCl, pH: 7.4, 10 mmol/L MgCl2, 1 mM DTT, 1 mmol/L EGTA) were added under ice cooling. The resultant mixed solution was incubated at 30° C. for 10 min, and thereafter heated for 2 min in boiled water to stop the enzyme reaction of the PDE9. Then, the resultant was returned to room temperature; 50 μL of 5′-Nucleotidase (Biomol GmbH, 10 units/mL) was added thereto; and the resultant was incubated at 30° C. for 10 min to thereby convert [^3H]-5′-GMP formed in the previous reaction to [^3H]-guanosine. 500 μL of an anion exchange resin (Bio-Rad AG1-X2 resin, mesh size: 200-400, H2O:resin=2:1) was added to the resultant reaction liquid, and allowed to stand for 10 min, and thereafter centrifuged (2,000 rpm, 10 min); and a supernatant in which the [^3H]-guanosine was present was transferred to a LumaPlate (PerkinElmer, Inc.), and the radioactivity was measured by a TopCount NXT microplate scintillation and luminescence counter (PerkinElmer, Inc.).
The inhibition percentage of the evaluation compound was calculated using the following expression, taking the radioactivity of a control containing no evaluation compound to be (A), the radioactivity of a blank containing no enzyme to be (B), and the radioactivity of the evaluation compound to be (C). Inhibition percentage=100−{[(C)−(B)]/[(A)−(B)]}×100(%)
The IC50 value for PDE9 of the evaluation compound was determined from inhibition percentage for various concentrations.

Usually pIC50 stands for the negative decadic logarithm of the IC50, by convention in mol/L.

The structures appear in SMILES notation. pIC50: −log10 of the molar value.

T1 sequence (O76083 whole entry): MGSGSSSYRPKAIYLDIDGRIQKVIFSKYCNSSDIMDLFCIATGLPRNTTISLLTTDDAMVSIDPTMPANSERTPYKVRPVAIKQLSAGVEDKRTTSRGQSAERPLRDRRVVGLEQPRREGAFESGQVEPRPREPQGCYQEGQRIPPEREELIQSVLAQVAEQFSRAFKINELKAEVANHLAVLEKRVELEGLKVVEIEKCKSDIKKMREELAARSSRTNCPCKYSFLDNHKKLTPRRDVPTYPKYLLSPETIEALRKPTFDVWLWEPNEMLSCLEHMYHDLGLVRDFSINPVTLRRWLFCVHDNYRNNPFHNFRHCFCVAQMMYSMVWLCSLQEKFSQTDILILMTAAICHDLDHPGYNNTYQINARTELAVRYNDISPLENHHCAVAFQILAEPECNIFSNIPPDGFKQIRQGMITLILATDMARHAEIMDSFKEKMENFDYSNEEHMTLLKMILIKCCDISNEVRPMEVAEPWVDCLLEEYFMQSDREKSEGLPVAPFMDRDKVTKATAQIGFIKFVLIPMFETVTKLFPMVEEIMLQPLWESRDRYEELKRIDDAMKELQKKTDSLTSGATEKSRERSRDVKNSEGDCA

With `COc1nc(C)cc(C)c1-c1ccc2c(c1)[nH]c(=O)c1cnn([C@@H]3COC[C@H]3OC)c12` (racemic) [Example 60, 7-(2-methoxy-4,6-dimethylpyridin-3-yl)-1-[(3RS,4SR)-4-methoxytetrahydrofuran-3-yl]-1H-pyrazolo[4,3-c]quinolin-4(5H)-one], the pIC50 is 7.51.
With `COc1ncc(C)c(-c2ccc3c(c2)[nH]c(=O)c2cnn([C@@H]4COC[C@H]4OC)c23)c1C` (racemic) [Example 61, 7-(2-methoxy-3,5-dimethylpyridin-4-yl)-1-[(3RS,4SR)-4-methoxytetrahydrofuran-3-yl]-1H-pyrazolo[4,3-c]quinolin-4(5H)-one], the pIC50 is 7.11.
For the compound `COc1nc(C)cc(C)c1-c1ccc2c(c1)[nH]c(=O)c1cnn(C3CCOC3)c12` (single isomer, unassigned) [28 (+)], the pIC50 is 7.53.
Under `COc1cc(C)c(-c2ccc3c(c2)[nH]c(=O)c2cnn(C4CCOC4)c23)c(C)n1` (single isomer, unassigned) [29 (+)] stands 6.86.
Consider `COc1nc(CF)cc(C)c1-c1ccc2c(c1)[nH]c(=O)c1cnn(C3CCOC3)c12` (single isomer, unassigned) [31 (+)], for which the negative logarithm of the IC50 (pIC50) is 7.70.
Under `COc1nc(CF)cc(C)c1-c1ccc2c(c1)[nH]c(=O)c1cnn(C3CCOC3)c12` (single isomer, unassigned) [31 (−)] stands 8.13.
Regarding `COc1nccc(C)c1-c1ccc2c(c1)[nH]c(=O)c1cnn(C3CCOC3)c12` (single isomer, unassigned) [32 (+)], the negative-log IC50 (pIC50) was 7.15.
As for `COc1nc(CF)cc(C)c1-c1ccc2c(c1)[nH]c(=O)c1cnn(C3CCCOC3)c12` (single isomer, unassigned) [35 (+)], the pIC50 is 8.58.
Under `COc1nc(CF)cc(C)c1-c1ccc2c(c1)[nH]c(=O)c1cnn(C3CCCOC3)c12` (single isomer, unassigned) [35 (−)] stands 8.53; under `COc1ncc(C)c(-c2ccc3c(c2)[nH]c(=O)c2cnn(C4CCCOC4)c23)c1C` (single isomer, unassigned) [36 (+)], 8.05.
On to `COc1ncc(C)c(-c2ccc3c(c2)[nH]c(=O)c2cnn(C4CCCOC4)c23)c1C` (single isomer, unassigned) [36 (−)], for which the pIC50 was 8.09.
For `COc1cc(C)c(-c2ccc3c(c2)[nH]c(=O)c2cnn(C4CCCOC4)c23)c(C)n1` (single isomer, unassigned) [37 (+)], the pIC50 was 7.96.
As to `COc1cc(C)c(-c2ccc3c(c2)[nH]c(=O)c2cnn(C4CCCOC4)c23)c(C)n1` (single isomer, unassigned) [37 (−)], the negative-log IC50 (pIC50) was 8.00.
Take `COc1cc(C)c(-c2ccc3c(c2)[nH]c(=O)c2cnn(C4CCCOC4)c23)c(CF)n1` (single isomer, unassigned) [38 (+)]: the pIC50 was 7.77.
For `COc1cc(C)c(-c2ccc3c(c2)[nH]c(=O)c2cnn(C4CCCOC4)c23)c(CF)n1` (single isomer, unassigned) [38 (−)] the value was 7.91; for `COc1nccc(C)c1-c1ccc2c(c1)[nH]c(=O)c1cnn(C3CCCOC3)c12` (single isomer, unassigned) [39 (+)], 8.29; for `COc1nccc(C)c1-c1ccc2c(c1)[nH]c(=O)c1cnn(C3CCCOC3)c12` (single isomer, unassigned) [39 (−)], 8.39.
For `COc1cc(C)c(-c2ccc3c(c2)[nH]c(=O)c2cnn(C4CCCOCC4)c23)c(C)c1` (single isomer, unassigned) [42 (+)] the value was 8.06; for `COc1cc(C)c(-c2ccc3c(c2)[nH]c(=O)c2cnn(C4CCCOCC4)c23)c(C)c1` (single isomer, unassigned) [42 (−)], 7.66.
For `Cc1cccc(C)c1-c1ccc2c(c1)[nH]c(=O)c1cnn(C3CCOC3)c12` (single isomer, unassigned; (+)) [33 (+), (+)-7-(2,6-dimethylphenyl)-1-(tetrahydrofuran-3-yl)-1H-pyrazolo[4,3-c]quinolin-4(5H)-one], the pIC50 is 6.95.

For the origin of these results see patent US8563565B2, “Pyrazoloquinoline derivatives” (Eisai R&D Management Co., Ltd., priority 2011, dated 2013).
